Counter-ions that a name gives are not always drawn.
Experiments:
DLD-1 = test: MTS assay, DLD-1; assay type: cell-based; settings: Homo sapiens, 72 hours, 1 Percent FBS
MDA-MB-231 = test: MTS assay, MDA-MB-231; assay type: cell-based; settings: Homo sapiens, 72 hours, 1 Percent FBS

melting point [°C] | Structure (SMILES) | inhibition at 10 µM (DLD-1) [%] | inhibition at 10 µM (MDA-MB-231) [%]
138 to 140 | COc1ccc2cc(-c3ccnc(NCCc4ccc(OC)c(OC)c4)n3)cc(N3CCNCC3)c2c1 (as salt: HCl) [Compound 110, N-(3,4-dimethoxyphenethyl)-4-(6-methoxy-4-(piperazin-1-yl)naphthalen-2-yl)pyrimidin-2-amine] |  | 
130 to 132 | CNc1nccc(-c2cc(NCCCNCCCOC)c3cc(OC)ccc3c2)n1 (as salt: HCl) [Compound 190, N-{7-methoxy-3-[2-(methylamino)pyrimidin-4-yl]-1-naphthyl}-N′-(3-methoxypropyl)propane-1,3-diamine] |  | 
156 to 160 | CCN(CC)CCCN1CCN(c2cc(-c3ccnc(NCc4cccc(OC)c4)n3)cc3ccc(OC)cc23)CC1 (as salt: hydrochloride) [Compound 197, 4-(4-(4-(3-(diethylamino)propyl)piperazin-1-yl)-6-methoxynaphthalen-2-yl)-N-(3-methoxybenzyl)pyrimidin-2-amine] |  | 
160 to 167 | COc1cccc(CNc2nccc(-c3cc(N4CCN(CCCN5CCCC5)CC4)c4cc(OC)ccc4c3)n2)c1 (as salt: hydrochloride) [Compound 198, 4-(6-methoxy-4-(4-(3-(pyrrolidin-1-yl)propyl)piperazin-1-yl)naphthalen-2-yl)-N-(3-methoxybenzyl)pyrimidin-2-amine] |  | 
156 to 160 | CCCN(C)CCCN1CCN(c2cc(-c3ccnc(NCc4cccc(OC)c4)n3)cc3ccc(OC)cc23)CC1 (as salt: hydrochloride) [Compound 199, 4-(6-methoxy-4-(4-(3-(methyl(propyl)amino)propyl)piperazin-1-yl)naphthalen-2-yl)-N-(3-methoxybenzyl)pyrimidin-2-amine] |  | 
122 to 130 | COc1cccc(CNc2nccc(-c3cc(N4CCN(CCCN5CCC5)CC4)c4cc(OC)ccc4c3)n2)c1 (as salt: hydrochloride) [Compound 200, 4-(4-(4-(3-(azetidin-1-yl)propyl)piperazin-1-yl)-6-methoxynaphthalen-2-yl)-N-(3-methoxybenzyl)pyrimidin-2-amine] |  | 
160 to 169 | CCN(C)CCCN1CCN(c2cc(-c3ccnc(NCc4cccc(OC)c4)n3)cc3ccc(OC)cc23)CC1 (as salt: hydrochloride) [Compound 201, 4-(4-(4-(3-(ethyl(methyl)amino)propyl)piperazin-1-yl)-6-methoxynaphthalen-2-yl)-N-(3-methoxybenzyl)pyrimidin-2-amine] |  | 
155 to 161 | COc1cccc(CNc2nccc(-c3cc(N4CCN(CCCN(C)C5CCCCC5)CC4)c4cc(OC)ccc4c3)n2)c1 (as salt: hydrochloride) [Compound 202, 4-(4-(4-(3-(cyclohexyl(methyl)amino)propyl)piperazin-1-yl)-6-methoxynaphthalen-2-yl)-N-(3-methoxybenzyl)pyrimidin-2-amine] |  | 
136 to 138 | COCCCNc1nccc(-c2cc(N3CCNCC3)c3cc(OC)ccc3c2)n1 [Compound 113, 4-(6-methoxy-4-piperazin-1-yl-2-naphthyl)-N-(3-methoxypropyl)pyrimidin-2-amine] |  | 
188 to 190 | COc1ccc2cc(-c3ccnc(NCCCN(C)C)n3)cc(N3CCNCC3)c2c1 [Compound 114, N′-[4-(6-methoxy-4-piperazin-1-yl-2-naphthyl)pyrimidin-2-yl]-N,N-dimethylpropane-1,3-diamine] |  | 
142 to 144 | COc1cccc(CCNc2nccc(-c3cc(N4CCNCC4)c4cc(OC)ccc4c3)n2)c1 [Compound 115, N-[2-(3-methoxyphenyl)ethyl]-4-(6-methoxy-4-piperazin-1-yl-2-naphthyl)pyrimidin-2-amine] |  | 
70 to 73 | CNc1nccc(-c2cc(NC(=O)CN(C)C)c3cc(OC)ccc3c2)n1 [Compound 137, 2-(dimethylamino)-N-(7-methoxy-3-(2-(methylamino)pyrimidin-4-yl)naphthalen-1-yl)acetamide] |  | 
169 to 172 | CNc1nccc(-c2cc(NC(=O)CNCCO)c3cc(OC)ccc3c2)n1 [Compound 138, 2-((2-hydroxyethyl)amino)-N-(7-methoxy-3-(2-(methylamino)pyrimidin-4-yl)naphthalen-1-yl)acetamide] |  | 
167 to 172 | COc1ccc2cc(-c3ccnc(N(C)C)n3)cc(NC3CCN(c4ncnc5[nH]nc(Br)c45)CC3)c2c1 [Compound 144, 4-(4-((1-(3-bromo-1H-pyrazolo[3,4-d]pyrimidin-4-yl)piperidin-4-yl)amino)-6-methoxynaphthalen-2-yl)-N,N-dimethylpyrimidin-2-amine] |  | 
 | CNc1nccc(-c2cc(NC3CCN(c4ncnc5c(C)csc45)CC3)c3cc(OC)ccc3c2)n1 [Compound 164, 4-(6-methoxy-4-{[l-(7-methylthieno[3,2-d]pyrimidin-4-yl)piperidin-4-yl]amino}-2-naphthyl)-N-methylpyrimidin-2-amine] | 98 | 90
 | CNc1nccc(-c2cc(NC3CCN(c4ncccc4C(=O)OC)CC3)c3cc(OC)ccc3c2)n1 [Compound 168, methyl 2-[4-({7-methoxy-3-[2-(methylamino)pyrimidin-4-yl]-1-naphthyl}amino)piperidin-1-yl]nicotinate] | 98 | 99

melting point [°C] | Structure (SMILES) | inhibition at 10 µM (DLD-1) [%] | inhibition at 10 µM (MDA-MB-231) [%]
225 to 227 | COCCCNc1nccc(-c2cc(N3CCN(c4ncnc5[nH]nc(Br)c45)CC3)c3cc(OC)ccc3c2)n1 [Compound 177, 4-{4-[4-(3-bromo-1H-pyrazolo[3,4-d]pyrimidin-4-yl)piperazin-1-yl]-6-methoxy-2-naphthyl}-N-(3-methoxypropyl)pyrimidin-2-amine] |  | 
152 to 155 | COc1ccc2cc(-c3ccnc(NCCCN(C)C)n3)cc(N3CCN(c4ncnc5[nH]nc(Br)c45)CC3)c2c1 [Compound 178, N1-(4-(4-(4-(3-bromo-1H-pyrazolo[3,4-d]pyrimidin-4-yl)piperazin-1-yl)-6-methoxynaphthalen-2-yl)pyrimidin-2-yl)-N3,N3-dimethylpropane-1,3-diamine] |  | 
130 to 133 | COc1ccc2cc(-c3ccnc(NCCc4ccc(OC)c(OC)c4)n3)cc(N3CCN(c4ncnc5[nH]nc(Br)c45)CC3)c2c1 [Compound 179, 4-{4-[4-(3-bromo-1H-pyrazolo[3,4-d]pyrimidin-4-yl)piperazin-1-yl]-6-methoxy-2-naphthyl}-N-[2-(3,4-dimethoxyphenyl)ethyl]pyrimidin-2-amine] |  | 
200 to 203 | COc1cccc(CCNc2nccc(-c3cc(N4CCN(c5ncnc6[nH]nc(Br)c56)CC4)c4cc(OC)ccc4c3)n2)c1 [Compound 180, 4-{4-[4-(3-bromo-1H-pyrazolo[3,4-d]pyrimidin-4-yl)piperazin-1-yl]-6-methoxy-2-naphthyl}-N-[2-(3-methoxyphenyl)ethyl]pyrimidin-2-amine] |  | 
145 to 148 | CNc1nccc(-c2cc(NCCCNc3ncnc4[nH]nc(Br)c34)c3cc(OC)ccc3c2)n1 [Compound 183, N1-(3-bromo-1H-pyrazolo[3,4-d]pyrimidin-4-yl)-N3-(7-methoxy-3-(2-(methylamino)pyrimidin-4-yl)naphthalen-1-yl)propane-1,3-diamine] |  | 
231 to 232 | CNc1nccc(-c2cc(NC(=O)c3ccc(C(C)(C)C)cc3)c3cc(OC)ccc3c2)n1 [Compound 184, 4-tert-butyl-N-{7-methoxy-3-[2-(methylamino)pyrimidin-4-yl]-1-naphthyl}benzamide] |  | 
201 to 203 | CNc1nccc(-c2cc(NC(=O)c3ccccc3)c3cc(OC)ccc3c2)n1 [Compound 185, N-{7-methoxy-3-[2-(methylamino)pyrimidin-4-yl]-1-naphthyl}benzamide] |  | 
234 to 235 | CNc1nccc(-c2cc(NC(C)=O)c3cc(OC)ccc3c2)n1 [Compound 186, N-{7-methoxy-3-[2-(methylamino)pyrimidin-4-yl]-1-naphthyl}acetamide] |  | 
227 to 229 | CNc1nccc(-c2cc(NC(=O)c3ccc(C(F)(F)F)cc3)c3cc(OC)ccc3c2)n1 [Compound 187, N-{7-methoxy-3-[2-(methylamino)pyrimidin-4-yl]-1-naphthyl}-4-(trifluoromethyl)benzamide] |  | 
214 to 215 | CNc1nccc(-c2cc(NC(=O)c3ccc(OC)cc3)c3cc(OC)ccc3c2)n1 [Compound 188, 4-methoxy-N-{7-methoxy-3-[2-(methylamino)pyrimidin-4-yl]-1-naphthyl}benzamide] |  | 
142 to 144 | CNc1nccc(-c2cc(NCCCNCCCN(C)C)c3cc(OC)ccc3c2)n1 [Compound 191, N′-[3-({7-methoxy-3-[2-(methylamino)pyrimidin-4-yl]-1-naphthyl}amino)propyl]-N,N-dimethylpropane-1,3-diamine] |  | 
94 to 97 | CNc1nccc(-c2cc(NCCCSC(=N)N)c3cc(OC)ccc3c2)n1 [Compound 192, 3-({7-methoxy-3-[2-(methylamino)pyrimidin-4-yl]-1-naphthyl}amino)propyl imidothiocarbamate] |  | 
63 to 75 | COc1cccc(CNc2nccc(-c3cc(N4CCN(CCCN5CCCCC5)CC4)c4cc(OC)ccc4c3)n2)c1 [Compound 194, 4-(6-methoxy-4-(4-(3-(piperidin-1-yl)propyl)piperazin-1-yl)naphthalen-2-yl)-N-(3-methoxybenzyl)pyrimidin-2-amine] |  | 
70 to 75 | COc1cccc(CNc2nccc(-c3cc(N4CCN(CCCN(C)C)CC4)c4cc(OC)ccc4c3)n2)c1 [Compound 195, 4-(4-(4-(3-(dimethylamino)propyl)piperazin-1-yl)-6-methoxynaphthalen-2-yl)-N-(3-methoxybenzyl)pyrimidin-2-amine] |  | 
65 to 73 | COc1cccc(CNc2nccc(-c3cc(N4CCN(CCCN5CCOCC5)CC4)c4cc(OC)ccc4c3)n2)c1 [Compound 196, 4-(6-methoxy-4-(4-(3-morpholinopropyl)piperazin-1-yl)naphthalen-2-yl)-N-(3-methoxybenzyl)pyrimidin-2-amine] |  | 

Source: patent publication US8173808B2, “Substituted naphthalenyl-pyrimidine compounds” (ArQule, Inc., priority 2009, dated 2012)
